Consider seven compounds from ChEMBL document CHEMBL4118281, “Azoalkyl ether imidazo[2,1-b]benzothiazoles as potentially antimicrobial agents with novel structural skeleton” (2018).

Assay [1] deals with Candida albicans. Kind of assay: Antifungal activity against Candida albicans after 24 hrs by two fold serial dilution based spectrophotometric analysis. The class given is functional.
Assay [2] relates to Aspergillus flavus. The experiment in a line: Antifungal activity against Aspergillus flavus after 24 hrs by two fold serial dilution based spectrophotometric analysis. The class given is functional.
The test system of assay [3] is Escherichia coli. Kind of assay: Antibacterial activity against Escherichia coli JM109 after 24 hrs by micro broth dilution method. The format is functional. The conditions noted are these: JM109, 24 h.
In assay [4] the test system is Bacillus subtilis. Kind of assay: Antibacterial activity against Bacillus subtilis after 24 hrs by micro broth dilution method. The class given is functional.
In assay [5] the test system is Pseudomonas aeruginosa. The experiment in a line: Antibacterial activity against Pseudomonas aeruginosa after 24 hrs by micro broth dilution method. The class given is functional.
Assay [6] concerns Saccharomyces cerevisiae. Kind of assay: Antifungal activity against Beer yeast after 24 hrs by two fold serial dilution based spectrophotometric analysis. The class given is functional.
Assay [7] concerns Bacillus. The experiment in a line: Antibacterial activity against Bacillus proteus ATCC 13315 after 24 hrs by micro broth dilution method. The format is functional. The conditions noted are these: ATCC 13315, 24 h.
For assay [8], the system named is Cyberlindnera jadinii. Kind of assay: Antifungal activity against Candida utilis after 24 hrs by two fold serial dilution based spectrophotometric analysis. The class given is functional. The conditions noted are these: Williopsis jadinii.
For assay [9], the system named is Staphylococcus aureus. The experiment in a line: Antibacterial activity against Staphylococcus aureus ATCC 25923 after 24 hrs by micro broth dilution method. The class given is functional. Conditions: ATCC 25923, 24 h.
For assay [10], the system named is Staphylococcus aureus. The experiment in a line: Antibacterial activity against methicillin-resistant Staphylococcus aureus N315 after 24 hrs by micro broth dilution method. The format is functional. Conditions: N315, 24 h.
In assay [11] the test system is Escherichia coli. Kind of assay: Antibacterial activity against Escherichia coli DH52 after 24 hrs by micro broth dilution method. The format is functional. Conditions: DH52, 24 h.
The subject of assay [12] is Pichia norvegensis. Kind of assay: Antifungal activity against Candida mycoderma after 24 hrs by two fold serial dilution based spectrophotometric analysis. The format is functional.
Assay [13] concerns Salmonella typhi. Kind of assay: Antibacterial activity against Bacillus typhi after 24 hrs by micro broth dilution method. Conditions: Salmonella enterica. The class given is functional, Salmonella enterica subsp. enterica serovar Typhi.
The test system of assay [14] is Shigella dysenteriae. Kind of assay: Antibacterial activity against Shigella dysenteriae after 24 hrs by micro broth dilution method. The format is functional.
In assay [15] the test system is Micrococcus luteus. The experiment in a line: Antibacterial activity against Micrococcus luteus ATCC 4698 after 24 hrs by micro broth dilution method. The class given is functional. Conditions: NCTC 2665, 24 h.

Converted amounts (≈) assume the structure as drawn. Where only a bound is given, the exact number is not on record here.

Regarding `CCOc1ccc2c(c1)sc1nc(-c3ccccc3)c(COCCCCCCCCCCBr)n12`, the MIC in [1] was over 512 µg/mL; in assay [2] it was 512 µg/mL (≈ 942 µM); in assay [3] it was over 512 µg/mL; in [4], over 512 µg/mL; in [5], 16 µg/mL (≈ 29.4 µM); in assay [6] it was over 512 µg/mL. Moreover, the MIC in [7], in [8], in assay [9], in assay [10], in assay [11] and in assay [12] was over 512 µg/mL in each case. Moreover, the MIC was 256 µg/mL (≈ 471 µM) in assay [13], over 512 µg/mL in assay [14] and over 512 µg/mL in assay [15].
Take `CCOc1ccc2c(c1)sc1nc(-c3ccccc3)c(COCCCn3cnc([N+](=O)[O-])c3)n12`: the MIC in [1] is 16 µg/mL (≈ 33.5 µM); in assay [2] it was 32 µg/mL (≈ 67 µM); in [3], 256 µg/mL (≈ 536 µM); in assay [4] it was 256 µg/mL (≈ 536 µM); in assay [5], 512 µg/mL (≈ 1070 µM); in assay [6] it was over 512 µg/mL. Further, the MIC in [7] is 512 µg/mL (≈ 1070 µM); in assay [8], 128 µg/mL (≈ 268 µM); in assay [9], 128 µg/mL (≈ 268 µM); in [10] it was 512 µg/mL (≈ 1070 µM); in assay [11], 512 µg/mL (≈ 1070 µM); in [12], 32 µg/mL (≈ 67 µM). The MIC in assay [13], in assay [14] and in [15] was 256 µg/mL (≈ 536 µM) in each case.
With `c1ccc(-c2nc3sc4ccccc4n3c2COCCCCCn2cncn2)cc1`, the MIC in assay [1] was 4 µg/mL (≈ 9.58 µM); in assay [2] it was 16 µg/mL (≈ 38.3 µM); in assay [3], 16 µg/mL (≈ 38.3 µM); in [4] it was 32 µg/mL (≈ 76.6 µM); in assay [5] it was 32 µg/mL (≈ 76.6 µM); in assay [6], 8 µg/mL (≈ 19.2 µM). Further, the MIC amounted to 32 µg/mL (≈ 76.6 µM) in assay [7]; 64 µg/mL (≈ 153 µM) in assay [8]; 16 µg/mL (≈ 38.3 µM) in assay [9]; 16 µg/mL (≈ 38.3 µM) in assay [10]; 32 µg/mL (≈ 76.6 µM) in assay [11]; 8 µg/mL (≈ 19.2 µM) in assay [12]. Further, the values for the MIC in assay [13], in assay [14] and in assay [15] were 32 µg/mL (≈ 76.6 µM), 8 µg/mL (≈ 19.2 µM) and 256 µg/mL (≈ 613 µM), respectively.
`CCOc1ccc2c(c1)sc1nc(-c3ccccc3)c(COCCCn3cncn3)n12`: the MIC in [1] is 16 µg/mL (≈ 36.9 µM); in [2] it was 64 µg/mL (≈ 148 µM); in assay [3], 256 µg/mL (≈ 590 µM); in assay [4], over 512 µg/mL; in assay [5], over 512 µg/mL; in assay [6] it was 128 µg/mL (≈ 295 µM). The minimal inhibitory concentration (MIC) is over 512 µg/mL in assay [7]; 64 µg/mL (≈ 148 µM) in [8]; over 512 µg/mL in assay [9]; over 512 µg/mL in assay [10]; over 512 µg/mL in assay [11]; 64 µg/mL (≈ 148 µM) in assay [12]. In addition, the MIC in assay [13], in assay [14] and in assay [15] was over 512 µg/mL throughout.
Regarding `BrCCCCCCCCCCOCc1c(-c2ccccc2)nc2sc3ccccc3n12`, the MIC in assay [1] came out at 4 µg/mL (≈ 8.01 µM); in [2], 16 µg/mL (≈ 32 µM); in assay [3], 128 µg/mL (≈ 256 µM); in [4], 8 µg/mL (≈ 16 µM); in assay [5], 16 µg/mL (≈ 32 µM); in assay [6] it was 64 µg/mL (≈ 128 µM). Further, the MIC in assay [7] was determined as 16 µg/mL (≈ 32 µM); in assay [8], 64 µg/mL (≈ 128 µM); in assay [9], 32 µg/mL (≈ 64.1 µM); in assay [10], 64 µg/mL (≈ 128 µM); in assay [11] it was 16 µg/mL (≈ 32 µM); in assay [12] it was 64 µg/mL (≈ 128 µM). The MIC is 128 µg/mL (≈ 256 µM) in assay [13], 64 µg/mL (≈ 128 µM) in [14] and 32 µg/mL (≈ 64.1 µM) in assay [15].
`CCOc1ccc2c(c1)sc1nc(-c3ccccc3)c(COCCCCCCCCCCn3c([N+](=O)[O-])cnc3C)n12`: the MIC in assay [1] amounted to 128 µg/mL (≈ 217 µM); in [2] it was 512 µg/mL (≈ 868 µM); in assay [3] it was 512 µg/mL (≈ 868 µM); in assay [4], 32 µg/mL (≈ 54.3 µM); in assay [5], 128 µg/mL (≈ 217 µM); in assay [6] it was 64 µg/mL (≈ 109 µM). Moreover, the MIC in assay [7] worked out at 256 µg/mL (≈ 434 µM); in assay [8] it was 256 µg/mL (≈ 434 µM); in [9], 128 µg/mL (≈ 217 µM); in [10] it was 128 µg/mL (≈ 217 µM); in assay [11], 256 µg/mL (≈ 434 µM); in [12], 256 µg/mL (≈ 434 µM). Further, the values for the MIC in assay [13], in [14] and in [15] were 256 µg/mL (≈ 434 µM), 16 µg/mL (≈ 27.1 µM) and 512 µg/mL (≈ 868 µM), respectively.
`CCOc1ccc2c(c1)sc1nc(-c3ccccc3)c(COCCCCCCCCCCn3cnc([N+](=O)[O-])c3)n12`: the MIC in assay [1] came out at 256 µg/mL (≈ 445 µM); in assay [2] it was 64 µg/mL (≈ 111 µM); in [3] it was 512 µg/mL (≈ 889 µM); in assay [4], 32 µg/mL (≈ 55.6 µM); in assay [5], 32 µg/mL (≈ 55.6 µM); in assay [6], 256 µg/mL (≈ 445 µM). Moreover, the minimum inhibitory concentration (MIC) in [7] was determined as 256 µg/mL (≈ 445 µM); in assay [8], 512 µg/mL (≈ 889 µM); in assay [9], 128 µg/mL (≈ 222 µM); in assay [10] it was 32 µg/mL (≈ 55.6 µM); in assay [11] it was 64 µg/mL (≈ 111 µM); in assay [12], 128 µg/mL (≈ 222 µM). The MIC in [13] amounted to 32 µg/mL (≈ 55.6 µM); in assay [14] it was 8 µg/mL (≈ 13.9 µM); in assay [15], 512 µg/mL (≈ 889 µM).
